Reference: patent publication US9546152B2 (MERCK SHARP & DOHME CORP., priority 2012, dated 2017)

Key:
human orexin-2 receptor [1] = biological target: T1, human orexin-2 receptor (Homo sapiens (Human), UniProt O43614); test: radioligand binding assay, orexin-2 receptor; settings: membranes prepared from CHO cells expressing the OX2 receptor; read-out: hOX2R BIND hKi
human orexin-2 receptor [2] = biological target: T1, human orexin-2 receptor; test: FLIPR Ca2+ Flux Assay, orexin-2 receptor; assay type: cell-based; settings: CHO cells expressing the human orexin-2 receptor; agonist 70 pM Ala-6,12 human orexin-A; read-out: hOX2R FLIPR IC50
Method in brief: (§1)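 Intracellular calcium in Fluo-4-loaded CHO cells (rat OX1R or human OX2R) is monitored on a FLIPR. Compounds are given 5 min before 70 pM Ala-6,12 orexin-A, and inhibition is derived from peak height versus the uninhibited agonist peak.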

rat orexin-1 receptor = rat orexin-1 receptor (Rattus norvegicus (Rat), UniProt P56718); test: FLIPR Ca2+ Flux Assay, orexin-1 receptor; assay type: cell-based; settings: CHO cells expressing the rat orexin-1 receptor; agonist 70 pM Ala-6,12 human orexin-A; read-out: hOX1R FLIPR IC50
Sequence of rat orexin-1 receptor (P56718 whole entry): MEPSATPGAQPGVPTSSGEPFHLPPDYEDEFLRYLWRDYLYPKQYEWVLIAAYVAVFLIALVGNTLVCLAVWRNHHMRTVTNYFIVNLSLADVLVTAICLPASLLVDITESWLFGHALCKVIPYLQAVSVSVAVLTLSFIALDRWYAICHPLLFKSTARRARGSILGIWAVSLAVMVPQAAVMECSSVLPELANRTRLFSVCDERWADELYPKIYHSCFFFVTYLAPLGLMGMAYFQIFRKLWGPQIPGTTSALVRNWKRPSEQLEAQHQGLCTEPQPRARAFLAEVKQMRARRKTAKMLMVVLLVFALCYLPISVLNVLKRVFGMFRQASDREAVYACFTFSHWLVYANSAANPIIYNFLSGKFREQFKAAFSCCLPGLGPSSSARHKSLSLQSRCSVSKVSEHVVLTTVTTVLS
Method in brief: as §1

T1 sequence (O43614 whole entry): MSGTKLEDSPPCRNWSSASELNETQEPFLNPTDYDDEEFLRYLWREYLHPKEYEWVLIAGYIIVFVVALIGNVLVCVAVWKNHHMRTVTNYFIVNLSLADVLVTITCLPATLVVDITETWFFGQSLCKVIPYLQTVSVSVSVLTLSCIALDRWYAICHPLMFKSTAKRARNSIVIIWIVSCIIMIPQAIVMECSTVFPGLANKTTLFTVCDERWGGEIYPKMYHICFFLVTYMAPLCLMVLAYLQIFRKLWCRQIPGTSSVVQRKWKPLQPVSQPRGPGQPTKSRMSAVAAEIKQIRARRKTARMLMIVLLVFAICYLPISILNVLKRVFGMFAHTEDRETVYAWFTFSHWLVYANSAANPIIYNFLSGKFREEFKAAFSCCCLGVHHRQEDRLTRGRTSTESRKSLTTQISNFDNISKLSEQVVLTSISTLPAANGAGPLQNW

SMILES: COc1c(C#N)ccnc1O[C@@H]1CC[C@@H](C)N(C(=O)c2ccc(F)cc2-c2ncccn2)C1 [Example 110, 2-({(3R,6R)-1-[(4-fluoro-2-pyrimidin-2-ylphenyl)carbonyl]-6-methylpiperidin-3-yl}oxy)-3-methoxypyridine-4-carbonitrile]
- Ki (human orexin-2 receptor [1]): 0.6 nM
- IC50 (human orexin-2 receptor [2]): 39 nM
- IC50 (rat orexin-1 receptor): 1240 nM

SMILES: Cc1nc(C(=O)N2C[C@H](Oc3nccc(C#N)c3C)CC[C@H]2C)c(-c2ccccc2)s1 [Example 57, 3-methyl-2-({(3R,6R)-6-methyl-1-[(2-methyl-5-phenyl-1,3-thiazol-4-yl)carbonyl]piperidin-3-yl}oxy)pyridine-4-carbonitrile]
- Ki (human orexin-2 receptor [1]): 1.4 nM
- IC50 (human orexin-2 receptor [2]): 23 nM
- IC50 (rat orexin-1 receptor): 521 nM

SMILES: Cc1c(C#N)ccnc1O[C@@H]1CC[C@@H](C)N(C(=O)c2ccc(F)cc2-n2nccn2)C1 [Example 9, 2-{[(3R,6R)-1-{[4-fluoro-2-(2H-1,2,3-triazol-2-yl)phenyl]carbonyl}-6-methylpiperidin-3-yl]oxy}-3-methylpyridine-4-carbonitrile]
- Ki (human orexin-2 receptor [1]): 0.5 nM
- IC50 (human orexin-2 receptor [2]): 12 nM
- IC50 (rat orexin-1 receptor): 1080 nM

SMILES: Cc1c(C#N)ccnc1O[C@@H]1CC[C@@H](C)N(C(=O)c2ccc(Br)nc2-n2nccn2)C1 [Example 89, 2-{[(3R,6R)-1-{[6-Bromo-2-(2H-1,2,3-triazol-2-yl)pyridin-3-yl]carbonyl}-6-methylpiperidin-3-yl]oxy}-3-methylpyridine-4-carbonitrile]
- Ki (human orexin-2 receptor [1]): 5.1 nM
- IC50 (human orexin-2 receptor [2]): 29 nM
- IC50 (rat orexin-1 receptor): > 10000 nM

SMILES: COc1ccc(C(=O)N2C[C@H](Oc3nccc(C#N)c3C)CC[C@H]2C)c(C2CC2)c1 [Example 52, 2-({(3R,6R)-1-[(2-cyclopropyl-4-methoxyphenyl)carbonyl]-6-methylpiperidin-3-yl}oxy)-3-methylpyridine-4-carbonitrile]
- Ki (human orexin-2 receptor [1]): 4.4 nM
- IC50 (human orexin-2 receptor [2]): 56 nM
- IC50 (rat orexin-1 receptor): 7030 nM

SMILES: Cc1c(C#N)ccnc1O[C@@H]1CC[C@@H](C)N(C(=O)c2cnccc2-n2nccn2)C1 [Example 10, 3-methyl-2-{[(3R,6R)-6-methyl-1-{[4-(2H-1,2,3-triazol-2-yl)pyridin-3-yl]carbonyl}piperidin-3-yl]oxy}pyridine-4-carbonitrile]
- Ki (human orexin-2 receptor [1]): 8.1 nM
- IC50 (human orexin-2 receptor [2]): 55 nM
- IC50 (rat orexin-1 receptor): 7070 nM

SMILES: COc1c(C#N)ccnc1O[C@@H]1CC[C@@H](C)N(C(=O)c2ccc(C)cc2-n2nccn2)C1 [Example 102, 3-methoxy-2-{[(3R,6R)-6-methyl-1-{[4-methyl-2-(2H-1,2,3-triazol-2-yl)phenyl]carbonyl}piperidin-3-yl]oxy}pyridine-4-carbonitrile]
- Ki (human orexin-2 receptor [1]): 0.4 nM
- IC50 (human orexin-2 receptor [2]): 21 nM
- IC50 (rat orexin-1 receptor): 3550 nM

SMILES: Cc1cccc(-n2nccn2)c1C(=O)N1C[C@H](Oc2nccc(C#N)c2C)CC[C@H]1C [Example 15, 3-methyl-2-{[(3R,6R)-6-methyl-1-{[2-methyl-6-(2H-1,2,3-triazol-2-yl)phenyl]carbonyl}piperidin-3-yl]oxy}pyridine-4-carbonitrile]
- Ki (human orexin-2 receptor [1]): 0.2 nM
- IC50 (human orexin-2 receptor [2]): 12 nM
- IC50 (rat orexin-1 receptor): 693 nM

SMILES: Cc1c(C#N)ccnc1O[C@@H]1CC[C@@H](C)N(C(=O)c2cc(F)ccc2-c2nccs2)C1 [Example 28, 2-{[(3R,6R)-1-{[5-fluoro-2-(1,3-thiazol-2-yl)phenyl]carbonyl}-6-methylpiperidin-3-yl]oxy}-3-methylpyridine-4-carbonitrile]
- Ki (human orexin-2 receptor [1]): 0.1 nM
- IC50 (human orexin-2 receptor [2]): 5 nM
- IC50 (rat orexin-1 receptor): 412 nM

SMILES: COc1ccc(C(=O)N2C[C@H](Oc3nccc(C#N)c3C)CC[C@H]2C)c(-c2ccccn2)n1 [Example 83, 2-({(3R,6R)-1-[(6-methoxy-2,2′-bypyridin-3-yl)carbonyl]-6-methylpiperidin-3-yl}oxy)-3-methylpyridine-4-carbonitrile]
- Ki (human orexin-2 receptor [1]): 0.84 nM
- IC50 (human orexin-2 receptor [2]): 64.6 nM
- IC50 (rat orexin-1 receptor): 10000 nM

SMILES: Cc1c(C#N)ccnc1O[C@@H]1CC[C@@H](C)N(C(=O)c2sccc2-c2cscn2)C1 [Example 38, 3-methyl-2-{[(3R,6R)-6-methyl-1-{[3-(1,3-thiazol-4-yl)thiophen-2-yl]carbonyl}piperidin-3-yl]oxy}pyridine-4-carbonitrile]
- Ki (human orexin-2 receptor [1]): 0.9 nM
- IC50 (human orexin-2 receptor [2]): 11 nM
- IC50 (rat orexin-1 receptor): 1640 nM

SMILES: CCOc1ccccc1C(=O)N1C[C@H](Oc2nccc(C#N)c2C)CC[C@H]1C [Example 19, 2-({(3R,6R)-1-[(2-ethoxyphenyl)carbonyl]-6-methylpiperidin-3-yl}oxy)-3-methylpyridine-4-carbonitrile]
- Ki (human orexin-2 receptor [1]): 0.7 nM
- IC50 (human orexin-2 receptor [2]): 6 nM
- IC50 (rat orexin-1 receptor): 2100 nM

SMILES: COc1c(C#N)ccnc1O[C@@H]1CC[C@@H](C)N(C(=O)c2ccccc2-n2ncnn2)C1 [Example 115, 3-Methoxy-2-{[(3R,6R)-6-methyl-1-{[2-(2H-tetrazol-2-yl)phenyl]carbonyl}piperidin-3-yl]oxy}pyridine-4-carbonitrile]
- Ki (human orexin-2 receptor [1]): 1.4 nM
- IC50 (human orexin-2 receptor [2]): 6 nM
- IC50 (rat orexin-1 receptor): 1650 nM

SMILES: Cc1c(C#N)ccnc1O[C@@H]1CC[C@@H](C)N(C(=O)c2c(F)cccc2-n2nccn2)C1 [Example 11, 2-{[(3R,6R)-1-{[2-fluoro-6-(2H-1,2,3-triazol-2-yl)phenyl]carbonyl}-6-methylpiperidin-3-yl]oxy}-3-methylpyridine-4-carbonitrile]
- Ki (human orexin-2 receptor [1]): 0.3 nM
- IC50 (human orexin-2 receptor [2]): 10 nM
- IC50 (rat orexin-1 receptor): 611 nM

SMILES: Cc1c(C#N)ccnc1O[C@@H]1CC[C@@H](C)N(C(=O)c2ccc(F)cc2C2CC2)C1 [Example 53, 2-({(3R,6R)-1-[(2-cyclopropyl-4-fluorophenyl)carbonyl]-6-methylpiperidin-3-yl}oxy)-3-methylpyridine-4-carbonitrile]
- Ki (human orexin-2 receptor [1]): 1.6 nM
- IC50 (human orexin-2 receptor [2]): 26 nM
- IC50 (rat orexin-1 receptor): 5780 nM

SMILES: Cc1c(C#N)ccnc1O[C@@H]1CC[C@@H](C)N(C(=O)c2ccccc2N2CCCC2)C1 [Example 29, 3-methyl-2-({(3R,6R)-6-methyl-1-[(2-pyrrolidin-1-ylphenyl)carbonyl]piperidin-3-yl}oxy)pyridine-4-carbonitrile]
- Ki (human orexin-2 receptor [1]): 3.4 nM
- IC50 (human orexin-2 receptor [2]): 29 nM
- IC50 (rat orexin-1 receptor): 3100 nM

SMILES: Cc1c(C#N)ccnc1O[C@@H]1CC[C@@H](C)N(C(=O)c2ccccc2C(F)(F)F)C1 [Example 17, 3-methyl-2-{[(3R,6R)-6-methyl-1-{[2-(trifluoromethyl)phenyl]carbonyl}piperidin-3-yl]oxy}pyridine-4-carbonitrile]
- Ki (human orexin-2 receptor [1]): 3.1 nM
- IC50 (human orexin-2 receptor [2]): 21 nM
- IC50 (rat orexin-1 receptor): 4960 nM

SMILES: CSc1c(C#N)ccnc1O[C@@H]1CC[C@@H](C)N(C(=O)c2ccccc2-n2nccn2)C1 [Example 95, 3-(Methylsulfanyl)-2-{[(3R,6R)-6-methyl-1-{[2-(2H-1,2,3-triazol-2-yl)phenyl]carbonyl}piperidin-3-yl]oxy}pyridine-4-carbonitrile]
- Ki (human orexin-2 receptor [1]): 0.1 nM
- IC50 (human orexin-2 receptor [2]): 6 nM
- IC50 (rat orexin-1 receptor): 306 nM

SMILES: COc1ccc(-c2ccccc2C(=O)N2C[C@H](Oc3nccc(C#N)c3C)CC[C@H]2C)cn1 [Example 49, 2-{[(3R,6R)-1-{[2-(6-methoxypyridin-3-yl)phenyl]carbonyl}-6-methylpiperidin-3-yl]oxy}-3-methylpyridine-4-carbonitrile]
- Ki (human orexin-2 receptor [1]): 0.5 nM
- IC50 (human orexin-2 receptor [2]): 15 nM
- IC50 (rat orexin-1 receptor): 469 nM

SMILES: COc1c(C#N)ccnc1O[C@@H]1CC[C@@H](C)N(C(=O)c2ccccc2C2CCC2)C1 [Example 105, 2-({(3R,6R)-1-[(2-cyclobutylphenyl)carbonyl]-6-methylpiperidin-3-yl}oxy)-3-methoxypyridine-4-carbonitrile]
- Ki (human orexin-2 receptor [1]): 0.2 nM
- IC50 (human orexin-2 receptor [2]): 36 nM
- IC50 (rat orexin-1 receptor): 3500 nM

SMILES: Cc1c(C#N)ccnc1O[C@@H]1CC[C@@H](C)N(C(=O)c2ccccc2Oc2ccccc2)C1 [Example 30, 3-methyl-2-({(3R,6R)-6-methyl-1-[(2-phenoxyphenyl)carbonyl]piperidin-3-yl}oxy)pyridine-4-carbonitrile]
- Ki (human orexin-2 receptor [1]): 2.3 nM
- IC50 (human orexin-2 receptor [2]): 46 nM
- IC50 (rat orexin-1 receptor): > 10000 nM

SMILES: Cc1c(C#N)ccnc1O[C@@H]1CC[C@@H](C)N(C(=O)c2ncccc2-c2cscn2)C1 [Example 24, 3-methyl-2-{[(3R,6R)-6-methyl-1-{[3-(1,3-thiazol-4-yl)pyridin-2-yl]carbonyl}piperidin-3-yl]oxy}pyridine-4-carbonitrile]
- Ki (human orexin-2 receptor [1]): 3.8 nM
- IC50 (human orexin-2 receptor [2]): 24 nM
- IC50 (rat orexin-1 receptor): 4900 nM

SMILES: COc1ccc(C(=O)N2C[C@H](Oc3nccc(C#N)c3OC)CC[C@H]2C)c(-n2nccn2)n1 [Example 104, 3-methoxy-2-{[(3R,6R)-1-{[6-methoxy-2-(2H-1,2,3-triazol-2-yl)pyridin-3-yl]carbonyl}-6-methylpiperidin-3-yl]oxy}pyridine-4-carbonitrile]
- Ki (human orexin-2 receptor [1]): 2 nM
- IC50 (human orexin-2 receptor [2]): 29 nM
- IC50 (rat orexin-1 receptor): > 10000 nM

SMILES: Cc1c(C#N)ccnc1O[C@@H]1CC[C@@H](C)N(C(=O)c2ccc(F)cc2-c2nccs2)C1 [Example 34, 2-{[(3R,6R)-1-{[4-fluoro-2-(1,3-thiazol-2-yl)phenyl]carbonyl}-6-methylpiperidin-3-yl]oxy}-3-methylpyridine-4-carbonitrile]
- Ki (human orexin-2 receptor [1]): 0.2 nM
- IC50 (human orexin-2 receptor [2]): 9 nM
- IC50 (rat orexin-1 receptor): 702 nM

SMILES: Cc1c(C#N)ccnc1O[C@@H]1CC[C@@H](C)N(C(=O)c2cnc(Cl)cc2-n2nccn2)C1 [Example 67, 2-{[(3R,6R)-1-{[6-chloro-4-(2H-1,2,3-triazol-2-yl)pyridin-3-yl]carbonyl}-6-methylpiperidin-3-yl]oxy}-3-methylpyridine-4-carbonitrile]
- Ki (human orexin-2 receptor [1]): 4.7 nM
- IC50 (human orexin-2 receptor [2]): 35 nM
- IC50 (rat orexin-1 receptor): > 10000 nM

SMILES: Cc1c(C#N)ccnc1O[C@@H]1CC[C@@H](C)N(C(=O)c2ccsc2-c2nccs2)C1 [Example 32, 3-methyl-2-{[(3R,6R)-6-methyl-1-{[2-(1,3-thiazol-2-yl)thiophen-3-yl]carbonyl}piperidin-3-yl]oxy}pyridine-4-carbonitrile]
- Ki (human orexin-2 receptor [1]): 0.7 nM
- IC50 (human orexin-2 receptor [2]): 29 nM
- IC50 (rat orexin-1 receptor): 1880 nM
